Legend:
[1] = tested on: HeLa cells; assay: immunocytochemistry of laminin γ1 aggregation in tunicamycin-treated cells; assay type: cell-based; conditions: HeLa, Tm 0.5 μg/ml, 5 hours, 50 μM KUS
Description: Figure 4 KUSs and ATP each prevented a decrease of ATP levels and ameliorated ER stress in tunicamycin-treated cells. (a) Immunocytochemical analyses of HeLa cells by an anti-laminin γ1 antibody. HeLa cells were treated with 0.5 μg/ml of tunicamycin (Tm) for 5 hours in the presence of KUSs (50 μM), ATP (0.1, 0.3, and 1 mM), methylpyruvate (MePyr) (3 and 10 mM), or vehicle alone (DMSO). Then, cells were fixed and subjected to immunocytochemical analyses. Normally growing HeLa cells were also analyzed (Control). Scale bar, 10 μm. (b) Measurements of the relative amounts of ATP per cell. HeLa cells were treated with tunicamycin (Tm, 0.5 μg/ml) for 24 hours in the presence of KUSs (50 μM) or ATP (0.1 and 1 mM), or vehicle alone (DMSO), and were harvested. Then, ATP amounts from 1.5 × 10^5 cells were measured. * P < 0.05, ** P < 0.01. Error bars indicate SD. (c) Western blot analyses on CHOP. HeLa cells were treated with 0.5 μg/ml of tunicamycin for 5 hours in the presence of KUSs (50 μM), ATP (0.1, 0.3, and 1 mM), methylpyruvate (MePyr) (3 and 10 mM), or vehicle alone (-). Then, cells were harvested and subjected to western blot analyses. Actin served as a loading control. Complete scans of the different blots are presented in Supplementary Fig. 9.

[2] = tested on: retinal neuronal cells; assay: retinal organ culture with NMDA insult; assay type: cell-based, mouse; conditions: 200 µM NMDA, 50 µM KUS121, 4 days
Description: Supplementary Figure Legends
Supplementary Figure 1 Inhibitory effects of KUS121, KUS187, and DBeQ on the ATPase activity of recombinant VCP purified from E. coli.
Supplementary Figure 2 (a) HeLa cells were cultured in medium with low glucose (0.25 g/l) for 20 hours, with or without KUSs, and ATP levels were measured with luciferase assays. *** P < 0.005 vs. DMSO control (Dunnett’s test, n=3). HG: medium with 4.5 g/l glucose. Error bars indicate SD. (b) HeLa cells were cultured in medium with low glucose (0.2 g/l) for 20 hours, with DMSO or KUSs, and ATP and ADP levels were measured by HPLC. The respective ratios of ATP/ADP are shown. * P < 0.05, ** P < 0.01 vs. DMSO control (Dunnett’s test, n=3). Error bars indicate SD. (c) HeLa cells were cultured in medium without glucose for 6 hours, with (50 µM each KUS, as indicated) or without KUSs, and acetyl-CoA levels were measured by HPLC.
Supplementary Figure 3 Immunohistochemical analyses of retinal neuronal cells.
Retinal sections of 5-month-old C57BL/6 mice were stained with (b) or without (a) an anti-VCP antibody12, developed with diaminobenzidine and counter-stained with hematoxylin (a, b). Note that all retinal neuronal cells highly expressed VCP. GCL: ganglion cell layer, IPL: inner plexiform layer, INL: inner nuclear layer, OPL: outer plexiform layer, ONL: outer nuclear layer, IS: inner segment, OS: outer segment.
Retinas from adult C57BL/6 mice were cultured on porous membrane with 200 µM of NMDA with or without KUS121 (50 µM) for 4 days. (a) HE-stained retinal sections.
In the retina cultured with KUS121, the inner nuclear layer (INL), inner plexiform layer (IPL), ganglion cell layer (GCL), and retinal nerve fiber layer (RNFL) were thicker than that of the retina without KUS121. (b) TUNEL staining of the retinal […]
Supplementary Figure 5 (a) Cross sectional (vertical) images obtained by spectral-domain optical coherence tomography (SD-OCT) in 21-day-old C57BL/6 wild-type (WT) and rd10 mice with or without KUSs. […] (c) The mean amplitude of the a-wave (measured at 25 msec), which is derived from photoreceptors, in KUS-treated […]

## Cc1cc(F)ccc1-c1ccc(/N=N/c2cc(S(=O)(=O)O)c3ccccc3c2N)cn1 [KUS121]
[1]
  aggregation of laminin γ1: clearly prevented the aggregation of laminin γ1
[2]
  TUNEL-positive apoptotic cells: More TUNEL-positive apoptotic cells (green) were observed in the retina
[2]; vs retina without KUS121
  thickness of INL, IPL, GCL and RNFL (HE-stained sections): thicker
[2]; retinas from adult C57BL/6 mice
  protection of retinal neuronal cells from NMDA insult: protects retinal neuronal cells from NMDA insult
